The values that follow come from patent US5408036A, “Isolated metallopolypeptide: compositions and synthetic methods” (The Scripps Research Institute, priority 1993, dated 1995).

Data set [1] in a line: Metal ion selectivity and relative affinities by CD analysis. The data set is classed as binding. The note with it: for metal ions bound, order of affinity: peptide SEQ ID NO:11 at pH 6.0; for metal ion(s) that preferentially stabilize the peptide: summary of Example 3A(2), 3A(3). The text has this:
Metal ion selectivity is an expected consequence of site specific metal-ligand interaction. The extent of helical induction, to a first approximation, depends on the affinity of metal ion toward the ligands employed, and on the compatibility of metal ion geometry and coordination sphere with the alpha-helical conformation. Thus, although numerous metal ions can induce and stabilize alpha-helix formation, the metal ion having the greatest relative affinity for the ligands employed is preferred and can readily be determined. […]
Peptides, prepared as in Example 1, and admixed with various metal salt solutions as described in Example 2B, were subjected to CD analysis to characterize metal ion selectivity with respect to the position of the metal binding site in the alpha-helical sequence.

Data set [2] can be described thus: Heat denaturation assay to measure melting temperatures. The data set is classed as physicochemical. The method, then: In order to assess differences in helix stability between the metal ion complexed and uncomplexed forms of peptides Seq. ID No's. 3 and 4, the conformational stability of each peptide in the presence and absence of transition metal ions was determined from heat denaturation studies according to published procedures. Pace et al., In Protein structure, p. 311., IRL Press, (1989). The analysis of the thermal denaturation curves afforded linear ΔG vs. T and van't Hoff plots. […] Complexed peptides Seq. ID No's.
Because tris-bipyridyl-metal ion coordination complexes are chiral and can form either a left-handed or a right-handed helix, two diastereomeric tri-helical structures can possibly be formed. The stereogenic environment of the ensuing parallel tri-helical topology as well as the geometrical constraints imposed by the overall C3 symmetry of the coordination complex was expected, however, to enforce a high degree of diastereoselectivity in the assembly process. The CD spectrum (in the region of 280 and 330 nm) of the peptide in the presence of Ni(II) indicated the formation of one diastereomer having a left-handed helical configuration. Such a behavior is also consistent with the expected left handed supercoil of the tri-helical metallopolypeptide. The analysis of the thermal denaturation curves for the metallopolypeptide in the presence of Ni(II) yielded linear ΔG vs T and van't Hoff plots.

Data set [3] can be described thus: Circular dichroism (CD) to measure degree of secondary structure (alpha-helicity). It counts as physicochemical. The note with it: for helicity / θ: using Cu(II). On the procedure:
ID No's. 3 and 4. The analysis was performed as described above.
Proton nuclear magnetic resonance spectra were recorded at 300MHz on Bruker AM300 spectrometer and are reported in parts per million (ppm) downfield from Me4 Si. Ultraviolet-visible spectra were recorded on Aviv Associates 14DS and Milton Roy Spectronic 3000 Array spectrometers. Circular dichroism measurements were made on Aviv Associates 62DS spectrometer equipped with a thermostable cell holder using 10, 1, and 0.1 mm Hellma quartz cells. All reported CD data have an uncertainty of ±2-5%. All ellipticity measurements are expressed as mean residue ellipticity, [θ], having the units deg·cm^2 ·dmol-^1.
Background: Circular dichroism is widely used to follow secondary structure.

Residues, ends and D or L forms follow the SMILES beside them.

As to `CC(=O)N[C@@H](C)C(=O)N[C@@H](CCC(=O)O)C(=O)N[C@@H](C)C(=O)N[C@@H](C)C(=O)N[C@@H](C)C(=O)N[C@@H](CCCCN)C(=O)N[C@@H](Cc1c[nH]cn1)C(=O)N[C@@H](C)C(=O)N[C@@H](C)C(=O)N[C@@H](C)C(=O)N[C@@H](Cc1c[nH]cn1)C(=O)N[C@@H](CCC(=O)O)C(=O)N[C@@H](C)C(=O)N[C@@H](C)C(=O)N[C@@H](C)C(=O)N[C@@H](CCCCN)C(=O)N[C@@H](C)C(N)=O` [peptide SEQ ID NO:4, Ac--Ala--Glu--Ala--Ala--Ala--Lys--His--Ala--Ala--Ala--His--Glu--Ala--Ala--Ala--Lys--Ala--CONH2] (Ac-AEAAAKHAAAHEAAAKA-NH2), in data set [1] (CD analysis), the “metal ions bound, order of affinity” value is “Ni(II) and Cu(II) predominantly followed by Cd(II) then Zn(II)”. For the same compound, the “metal ion(s) that preferentially stabilize the peptide” value in data set [1] is reported as “Ni(II)”. In addition, the “melting temperature (Tm)” value in data set [2] was -15.5 °C. Besides, the “CD spectrum, structure indicated” value in data set [3] (room temperature in water) is listed as “random coil structure”.
For `CC(=O)N[C@@H](C)C(=O)N[C@@H](Cc1c[nH]cn1)C(=O)N[C@@H](C)C(=O)N[C@@H](C)C(=O)N[C@@H](C)C(=O)N[C@@H](Cc1c[nH]cn1)C(=O)N[C@@H](CCC(=O)O)C(=O)N[C@@H](C)C(=O)N[C@@H](C)C(=O)N[C@@H](C)C(=O)N[C@@H](CCCCN)C(=O)N[C@@H](CCC(=O)O)C(=O)N[C@@H](C)C(=O)N[C@@H](C)C(=O)N[C@@H](C)C(=O)N[C@@H](CCCCN)C(=O)N[C@@H](C)C(N)=O` [peptide SEQ ID NO:5, Ac--Ala--His--Ala--Ala--Ala--His--Glu--Ala--Ala--Ala--Lys--Glu--Ala--Ala--Ala--Lys--Ala--CONH2] (Ac-AHAAAHEAAAKEAAAKA-NH2), in data set [1] (CD analysis), the “binding of Cd(II) or Zn(II)” value is on record as “no significant binding”; the “metal ions bound, order of affinity” value is “Ni(II) and Cu(II) in descending order of affinity”. The “metal ion(s) that preferentially stabilize the peptide” value in data set [1] is listed as “Ni(II)”.
For the compound “Ac--Ala--Ala--Xaa2 --Ala--Leu--Glu--Xaa2 --Gln--Ala--Lys--Ala--Leu--Lys--Glu--Ala--Ala--Gln--Lys--Ala--CONH2 [peptide SEQ ID NO:11, Xaa2 = (NH2)(CO2 H)CH(CH2)3 N(CH2 CO2 H)2]”, the “metal ions bound, order of affinity” value in data set [1] (CD analysis) was “Cu(II), Hg(II), Cd(II), Fe(II), Zn(II) and Pb(II) in descending order of affinity”. Also, the “metal ion(s) that preferentially stabilize the peptide” value in data set [1] was “Cu(II)”. In data set [3] (0° C.), the helicity result was “about 100%” and the θ was 35,600. In data set [3] (20° C.), the helicity entry is “about 80%” and the θ is on record as 29,300.
Turning to “Ru(III)-peptide SEQ ID NO:3 complex: exchange-inert macrocyclic cis-[Ru(NH3)4 (L)2 ]^3+ complex of peptide SEQ ID NO:3 through two His residues at i and i+4 (AEAAAKEAAAKHAAAHA; Ru(III) tetraammine macrocyclic complex via two His)”, in data set [2], the “melting temperature (Tm)” value was 35 °C. Also, in data set [3] (room temperature in water), the alpha-helicity is listed as > 80% and the θ222 is listed as -28,000.
